# From patent US20160235778A1, “COMPOSITIONS CONTAINING PUFA, URIDINE AND CHOLINE AND METHODS OF USE THEREOF” (MASSACHUSETTS INSTITUTE OF TECHNOLOGY, priority 2014, published 2016)
# What was measured:
# brain phospholipids = experiment: Brain phospholipid levels in gerbils given UMP diet and/or PUFA by gavage; type: in vivo, gerbil; set-up: PC / PE / PS / PI: unit not given here
# Experimental: Control standard diet (Table 4) consisted of Teklad Global 16% protein rodent diet (Harlan Teklad, Madison, Wis.), which contained 0.1% choline chloride (CC), corresponding to a daily dose of 50 mg/kg/day. UMP was provided as 0.5% UMP·2Na^+ weight/weight, added to the control diet, also prepared by Harlan Teklad, corresponding to 240 mg/kg/day UMP. DHA was administered as 300 mg/kg/day in 200 microliter (mcL)/day 5% Arabic Gum solution, while groups not receiving DHA were administered vehicle (5% Arabic Gum) alone. DHA was provided by Nu-Chek Prep (Elysian, MN) and UMP by Numico (Wagenigen, NL).
# Gerbils were anesthetized with ketamine and xylazine (80 and 10 mg/kg bwt, i.p.) and sacrificed by immersing the head into liquid nitrogen for 2 min, followed by decapitation. Brains were immediately and quickly (30 seconds) removed using a bone rongeur and stored at −80° C.
# Frozen brain hemispheres were weighed and homogenized in 100 volumes of ice-cold deionized water using a tissue degrader (Polytron PT 10-35, Kinematica AG, Switzerland), then analyzed as described in Example 1.
# Protein in whole brain homogenate sample was measured for using bicinchoninic acid reagent (Perkin Elmer, Norwalk, Conn., USA). DNA was measured by measuring 460 nm emission of samples on a fluorometer in the presence of bisbenzimidizole, a fluorescent dye known as Hoechst H 33258 (American Hoechst Corporation), which has an excitation maximum at 356 nm and an emission maximum of 458 when bound to DNA.
# Male gerbils weighing 80-100 g were divided into 4 groups of 8 gerbils and administered the supplements depicted in Table 1:
# Adult gerbils were administered control standard diet (Table 4) with our without 0.5% UMP and/or 300 mg/kg/day DHA, EPA, or AA. Groups not receiving DHA were administered vehicle (5% Arabic Gum) alone.
# [1] = system: hippocampal dendritic spines; experiment: Hippocampal dendritic spine numbers in pups of treated pregnant and nursing mothers; type: in vivo; conditions: rat pups, mothers treated 10 days before parturition and 20 days while nursing
# From the text: In another study, pregnant rats were allowed to consume ad libitum, for 10 days before parturition and 20 days while nursing, either a choline-containing control diet or this diet supplemented with uridine as UMP; half of each group also received DHA or its diluent daily, by gavage. Pups were then sacrificed and brain slices were examined to determine numbers of hippocampal dendritic spines.
# brain CDP-choline = experiment: Brain CDP-choline and CDP-ethanolamine levels (HPLC); type: in vivo; conditions: gerbil
# Experimental: FIG. 5A-B. Effects of DHA on brain CDP-choline levels (FIG. 5A) and CDP-ethanolamine levels (FIG. 5B). Groups of 8 gerbils received either a control or a UMP-containing diet, and, by gavage, DHA (in a vehicle of 5% gum Arabic solution) or 5% gum Arabic solution alone for 28 days. On the 29th day brains were harvested and assayed for CDP-choline. Data are presented as means±SEM. Statistical analysis was performed using one- or two-way ANOVA followed by Tukey test. a: P<0.05 when compared with the values for control diet plus vehicle group; b: P<0.05 when compared with values for UMP diet plus vehicle group.
# Aliquots (2 ml) of the upper (aqueous) phase were dried under a vacuum, reconstituted, and injected into an HPLC. The dried samples were reconstituted in 100-200 μl water and were analyzed by HPLC on an anion exchange column (Alltech Hypersil APS-2, […], 250×4.6 mm). CDP-choline was eluted with a linear gradient of buffers A (H3PO4, 1.75 mM, pH 2.9) and B (NaH2PO2, 500 mM, pH 4.5) from 0 to 100% B over period of 30 min. With this system, CDP-choline was resolved from closely co-eluting substances such as UMP in an isocratic system over a period of 40 min. The retention time for CDP-choline was 9.5 min. The column was washed with buffer B at the end of each experiment and every several days to remove retained nucleotides. Individual nucleotide peaks were detected by UV absorption at 280 nm and were identified by comparison with the positions of authentic standards, as well as by the addition of nucleotide standards to samples.
# SHSY-5Y cells = experiment: 14C-choline incorporation into phospholipids in SHSY-5Y cells; type: cell-based, human
# Experimental: SHSY-5Y cells were grown to near confluency in DMEM+10% FBS in 35 mm dishes. Cells were incubated for 18 hr in serum-free DMEM+1% FBS containing 30 μM choline+/−10 μM of DHA, arachidonic acid, or palmitic acid. Cells were then labeled, and labeled phospholipids were quantified as described for Example 1.
# DHA was dissolved in ethanol to a […] concentration and frozen in 10 microliter aliquots at −80° C. For each experiment, one aliquot was diluted in ethanol to 10 micromolar; the volume giving the desired final solution in incubation medium was mixed with an equal volume of BSA solution (1 gm/ml).
# The effect of arachidonic acid on phospholipid synthesis in SHSY-5Y cells was further characterized as described for omega-3 fatty acids and PC-12 cells in Example 2. […] Thus, omega-6 fatty acids stimulate synthesis of a variety of phospholipids in a dose-dependent manner.
# [2] = gerbil brain, 3 weeks, 0.5% UMP and/or 300 mg/kg/day PUFA, Table 6
# [3] = gerbil brain, 4 weeks, normalized to DNA levels, mean +/- SEM
# [4] = gerbil brain, 4 weeks, normalized to protein levels, mean +/- SEM
# [5] = gerbil brain, Table 5 part B, One week
# [6] = gerbil brain, Table 5 part B, Three weeks
# [7] = gerbil, Table 5A study, vs control
structure (smiles),measurement,setting,value
"CCC=CCC=CCC=CCC=CCC=CCCCC(=O)O [EPA, 5,8,11,14,17-eicosapentaenoic acid]",PC,brain phospholipids; [2],125 ± 8
same,PE,brain phospholipids; [2],76 ± 4
same,PI,brain phospholipids; [2],22 ± 2
same,PS,brain phospholipids; [2],31 ± 1
same,SM,brain phospholipids; [2],26 ± 3
same,Total PL,brain phospholipids; [2],347 ± 19
same,"brain phospholipid levels, in words","brain phospholipids; gerbil, 3 weeks",increased phospholipid levels
"O=c1ccn([C@@H]2O[C@H](COP(=O)(O)O)[C@@H](O)[C@H]2O)c(=O)[nH]1 [UMP, uridine monophosphate]",PC,brain phospholipids; [2],131 ± 2
same,PE,brain phospholipids; [2],70 ± 1
same,PI,brain phospholipids; [2],16 ± 1
same,PS,brain phospholipids; [2],29 ± 1
same,SM,brain phospholipids; [2],22 ± 1
same,Total PL,brain phospholipids; [2],332 ± 5
same,PC,brain phospholipids; [3],368 ± 10
same,PE,brain phospholipids; [3],195 ± 9
same,PI,brain phospholipids; [3],78 ± 6
same,PS,brain phospholipids; [3],86 ± 7
same,SM,brain phospholipids; [3],111 ± 4
same,Total PL,brain phospholipids; [3],878 ± 18
same,PC,brain phospholipids; [4],171 ± 8
same,PE,brain phospholipids; [4],84 ± 8
same,PI,brain phospholipids; [4],31 ± 2
same,PS,brain phospholipids; [4],35 ± 3
same,SM,brain phospholipids; [4],52 ± 5
same,Total PL,brain phospholipids; [4],367 ± 22
same,increase in levels of total phospholipids,"brain phospholipids; gerbil brain, 4 weeks, vs control group",5%
same,PtdCho,"brain phospholipids; gerbil brain, Table 5 part A",171 ± 8 nmol/mg prt
same,PtdEtn,"brain phospholipids; gerbil brain, Table 5 part A",64 ± 8 nmol/mg prt
same,PtdIns,"brain phospholipids; gerbil brain, Table 5 part A",31 ± 2 nmol/mg prt
same,PtdSer,"brain phospholipids; gerbil brain, Table 5 part A",35 ± 3 nmol/mg prt
same,SM,"brain phospholipids; gerbil brain, Table 5 part A",52 ± 5 nmol/mg prt
same,Total PL,"brain phospholipids; gerbil brain, Table 5 part A",367 ± 22 nmol/mg prt
same,PtdCho,brain phospholipids; [5],154 ± 6 nmol/mg prt
same,PtdEtn,brain phospholipids; [5],63 ± 4 nmol/mg prt
same,PtdIns,brain phospholipids; [5],20 ± 4 nmol/mg prt
same,PtdSer,brain phospholipids; [5],39 ± 1 nmol/mg prt
same,SM,brain phospholipids; [5],49 ± 3 nmol/mg prt
same,Total PL,brain phospholipids; [5],390 ± 21 nmol/mg prt
same,PtdCho,brain phospholipids; [6],199 ± 5 nmol/mg prt
same,PtdEtn,brain phospholipids; [6],87 ± 4 nmol/mg prt
same,PtdIns,brain phospholipids; [6],25 ± 1 nmol/mg prt
same,PtdSer,brain phospholipids; [6],42 ± 2 nmol/mg prt
same,SM,brain phospholipids; [6],70 ± 4 nmol/mg prt
same,Total PL,brain phospholipids; [6],479 ± 6 nmol/mg prt
same,effect on brain phospholipids after 1 week of treatment,"brain phospholipids; gerbil, 1 week",no significant effects
same,increase in brain level of PC,brain phospholipids; [7],13%
same,increase in brain level of PE,brain phospholipids; [7],29%
same,increase in brain level of PI,brain phospholipids; [7],48%
same,"increases in brain phospholipids, in words","brain phospholipids; gerbil, treatment for 3 weeks",smaller but still significant increases
same,Increase over control (%),[1],28%
same,Number of spines,[1],68
same,"brain CDP-choline levels, in words",brain CDP-choline; FIG. 5A,decreased
same,"brain CDP-ethanolamine levels, in words",brain CDP-choline; FIG. 5B,decreased
"CCCCCC=CCC=CCC=CCC=CCCCC(=O)O [arachidonic acid, 5,8,11,14-eicosatetraenoic acid]","brain phospholipid levels, in words","brain phospholipids; gerbil, 3 weeks",increased phospholipid levels
same,phospholipid synthesis,"SHSY-5Y cells; 18 h with 10 μM fatty acid, FIG. 3A",enhanced
same,"synthesis of total phospholipids, PC and phosphatidylethanolamine","SHSY-5Y cells; range of dosages, dose-dependent, FIG. 3B",increased synthesis
